Measured values taken from patent US6872707B1, “Halo derivatives of 9-deoxo-9a-aza-homerythromycin A” (PLIVA farmaceutska industrija dionicko drustvo, priority 1999, dated 2005).

Legend:
Type in all cases: cell-based
resistent strains = test: In vitro antibacterial activity against resistent strains
From the text: (§1) In vitro action of the novel compounds was investigated on a series of standard and resistent test microorganisms. […] In N′-(C1-C6)haloalkylcarbamoyl derivatives similar traits were observed.

[1] = test system: test microorganisms sensitive to erythromycin; test: In vitro antibacterial activity against erythromycin-sensitive test microorganisms
From the text: as §1

[2] = test system: S. aureus, E. faecalis and S. pneumoniae; test: In vitro antibacterial action of haloaryl derivatives on standard and resistent test microorganisms; conditions: comparison within the series
From the text: as §1

CC[C@H]1OC(=O)[C@H](C)[C@@H](O[C@H]2C[C@@](C)(OC)[C@@H](O)[C@H](C)O2)[C@H](C)[C@@H](O[C@@H]2O[C@H](C)C[C@H](N(C)C)[C@H]2O)[C@](C)(O)C[C@@H](C)CN(C(=S)Nc2cccc(C(F)(F)F)c2)[C@H](C)[C@@H](O)[C@]1(C)O [Example 21, 9-deoxo-9a-N-{N′-[(3-trifluoromethyl-phenyl)thiocarbamoyl]}-9a-aza-9a-homoerythromycin A]
activity against resistent strains (resistent strains): showed an activity against resistent strains
activity against test microorganisms sensitive to erythromycin [1]: activity against test microorganisms sensitive to erythromycin
antibacterial in vitro activity (effectiveness) [2]: the most active one
